Reference: PMC5716539, “The acute glucose lowering effect of specific GPR120 activation in mice is mainly driven by glucagon-like peptide 1” (PLoS ONE, 2017)

Key:
lean female mice = test: Intravenous glucose tolerance test (IVGTT) in lean female mice; type: in vivo, mouse; conditions: for Basal blood glucose: 4-hour fasted female mice, oral Metabolex-36 100 mg/kg or AZ13581837 35 mg/kg, vehicle 7.8±0.2 mM; for Acute insulin response (AIR): vs controls; for Acute insulin response (AIR) / Glucose elimination between 1 and 20 min / Time after iv glucose bolus up to which insulin levels were significantly elevated: Metabolex-36 100 mg/kg; for Acute insulin response (AIR) / Glucose elimination between 1 and 20 min: AZ13581837 35 mg/kg oral; for Time after iv glucose bolus up to which insulin levels were significantly elevated: oral pre-administration, AZ13581837 35 mg/kg
Method: (§1) Lean female mice (body weight 20–25 g), were randomized on body weight and fasted 4 hours prior to the IVGTT. Metabolex-36 (100 mg/kg) was administered orally 60 min and AZ13581837 (35mg/kg) 30 min before the IVGTT ([…]). Control mice were given vehicle (0.5% HPMC, 0.1% Tween-80) at corresponding time points. The specificity of AZ13581837 was examined in IVGTT in GPR120 null mice. GPR120 agonist doses were selected to reach plasma levels of at least 10 times over the in vitro EC50 value to achieve maximal activation of GPR120 (S2 Appendix). Thirty minutes prior to the glucose load, the mice were anaesthetised (20 mg/kg fluanisone/0.8 mg/kg fentanyl (Hypnorm®, Janssen, Beerse, Belgium) and 10 mg/kg midazolam (Dormicum®, Hoffman-LaRoche, Basel, Switzerland)) to allow for rapid blood sampling. The mice were kept at a heating pad to maintain body temperature.
In separate experiments, mice were pretreated with the GLP-1 receptor antagonist exendin 9–39 (30 nmol/kg, Bachem; intraperitoneally) alone or in combination with the GPR120 agonists, 15 min prior to the IVGTT. Insulin and glucose were measured 0, 1, 5, 10, 20 and 40 min after intravenous (iv) glucose administration. In separate groups of mice total GLP-1 levels were measured 60 min after oral administration of Metabolex-36 or 30 min after AZ13581837 and in corresponding vehicle (0.5% HPMC, 0.1% Tween-80) dosed mice. Blood samples were collected in EDTA coated tubes, centrifuged at 10000xg for 4 min, and plasma was separated and stored frozen until analyzed.
(§2) In the IVGTT, the acute insulin response (AIR) was calculated as the mean of suprabasal 1 and 5 min values, and the glucose elimination was quantified using the glucose elimination constant (KG) calculated as the slope of the logarithmic transformation of circulating glucose between 1 and 20 min after the glucose bolus. Multiple comparisons between the different groups were performed by one-way ANOVA. Tukey’s or Bonferroni’s post hoc test were used to calculate statistical differences between the groups. Significant statistical difference was considered at p<0.05. Data are presented as mean ± SEM.

lean male mice = test: Oral glucose tolerance test (OGTT) in lean male mice; type: in vivo, mouse; conditions: for Glucose excursions following oral glucose administration: oral dosing, different doses, glucose 2 g/kg, vs vehicle; for Dose at which significantly improved glucose tolerance was observed: oral, OGTT lean male mice; for Calculated unbound effective concentration, Ce50: unbound concentration giving 50% decrease in blood glucose over time vs vehicle, turnover model
Method: (§3) OGTT tests were performed in lean male mice (body weight 27-32g), randomized on body weight, fasted for 16 hours. An oral glucose load (2 g/kg) was administered 30 min (AZ13581837, 7 and 18 mg/kg) or 60 min (Metabolex-36, 10, 30 and 100 mg/kg) after oral dosing with the GPR120 agonists and blood glucose was measured at -30, 0, 10, 25, 40, 60 and 90 min post glucose administration. The specificity of Metabolex-36 was examined in male GPR120 null mice. The administration time for the GPR120 agonists was optimized depending on the pharmacokinetic profile of each compound, in order to maximize the plasma exposure of the compounds during the experiments.
For OGTT a turnover model with a log-linear drug function was used to model the glucose lowering effect determined as the effective concentration resulting in a 50% decrease in blood glucose over time (Ce50) compared to vehicle. All analyses were performed using Phoenix WinNonlin 6.4 (Certara, Princeton, NJ, USA). The area under the glucose excursion curve was calculated and used for statistical evaluation.

mouse islets = test system: mouse islets; parameters: method as in PMID 24663807; conditions: cited from earlier work
mouse GPR120 = target: T1, mouse GPR120 (Mus musculus, UniProt Q7TMA4); test: cAMP production in CHO cells overexpressing mouse GPR120; type: cell-based; conditions: data not shown
T1 construct: expressed in transfected cells
T1 sequence (Q7TMA4 1-361): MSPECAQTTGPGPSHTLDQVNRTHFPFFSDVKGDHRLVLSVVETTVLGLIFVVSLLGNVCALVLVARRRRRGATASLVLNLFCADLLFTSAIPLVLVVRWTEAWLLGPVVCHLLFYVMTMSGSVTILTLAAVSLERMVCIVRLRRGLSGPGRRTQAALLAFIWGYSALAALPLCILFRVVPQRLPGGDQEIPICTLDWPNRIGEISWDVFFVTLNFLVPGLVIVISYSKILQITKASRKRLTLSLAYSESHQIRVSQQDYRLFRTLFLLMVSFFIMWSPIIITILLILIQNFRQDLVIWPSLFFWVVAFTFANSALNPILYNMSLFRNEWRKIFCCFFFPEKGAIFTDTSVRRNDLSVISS

GPR120 null mice [1] = test: OGTT in male GPR120 null mice; type: in vivo, mouse
Method: as §3

GPR120 null mice [2] = test: IVGTT in female GPR120 null mice; type: in vivo, mouse
Method: as §1
as §2, with “Significant statistical difference was considered at p<0.05. Data are presented as mean ± SEM.” left out

[3] = exendin 9–39 30 nmol/kg i.p. 15 min prior to IVGTT

Compound	Basal blood glucose (lean female mice)	Acute insulin response (AIR) (lean female mice; IVGTT)	Glucose elimination between 1 and 20 min (lean female mice; IVGTT)	Acute insulin response when given together with exendin 9–39 (lean female mice; [3])	Agonist-induced increase in insulin secretion after co-administration with exendin 9–39 (lean female mice; [3])	Glucose elimination when given together with exendin 9–39 (lean female mice; [3])	Glucose lowering effect in combination with exendin 9–39 (lean female mice; [3])	Time after iv glucose bolus up to which insulin levels were significantly elevated (lean female mice)	Glucose excursions following oral glucose administration (lean male mice)	Dose at which significantly improved glucose tolerance was observed (lean male mice)	Calculated unbound effective concentration, Ce50 (lean male mice)	Somatostatin secretion in vitro from mouse islets (mouse islets)	Activation or inhibition of cAMP production in CHO cells overexpressing mouse GPR120 (mouse GPR120)	Effect on oral glucose tolerance in GPR120 null mice (GPR120 null mice [1])	Insulin secretion in IVGTT (agonist alone) (lean female mice; exendin 9–39 experiment, agonist alone vs vehicle)	Acute insulin secretion in wt mice (lean female mice; female wild type mice, AZ13581837 30 min prior to iv glucose, vs vehicle, p<0.05)	Glucose elimination in wt mice compared to compound treated GPR120 null mice (lean female mice; female wt mice, IVGTT, p<0.05)	Glucose elimination in GPR120 null mice (GPR120 null mice [2]; IVGTT)	Acute insulin secretion in GPR120 null mice (GPR120 null mice [2]; vs vehicle of same genotype)
3-(3,5-difluoro-4-((3-methyl-1-phenyl-1H-pyrazol-5-yl)methoxy)phenyl)-2-methylpropanoic acid [Metabolex-36]	6.9 ± 0.2 mM	significant increase	increased the glucose elimination	reduced to vehicle levels	abolished	reduced to vehicle levels	abolished	up to 5 minutes	concentration dependent reduction	30 mg/kg	0.6 µM	reduce somatostatin secretion	unable to detect	no effect					
C#Cc1cc(Oc2cccnc2)cc(N2Cc3ccccc3S2(=O)=O)c1 [AZ13581837, 2-(3-ethynyl-5-(3-pyridyloxy)phenyl)-3H-1,2-benzothiazole 1,1-dioxide]	7.1 ± 0.3 mM	significant increase	increased the glucose elimination		completely abolished			up to 10 minutes	concentration dependent reduction	18 mg/kg	0.02 µM		unable to detect		significant increase	significantly increased	increased	no effect	no effect
